Results as given in patent US10472352B2, “Rac inhibitors” (Geneyus LLC, priority 2017, dated 2019).

Tests used:
[1] = tested on: MCF-7 human breast cancer cell line; assay: Cell Viability Assay (MCF7), PrestoBlue; assay type: cell-based; conditions: MCF7, 72 h, MCF-7 cells, three days after drug treatment
Protocol: In order to determine a compound's effect on cell viability, PrestoBlue assays were performed as previously described by Kuhn et al. (2013) with modifications. MCF-7 human breast cancer and IGR-1 human melanoma cell lines were seeded into 96-well plates 24 hours prior to addition of drug. Cells were treated with 0 to 200 μM (11 concentrations) of compound solubilized in DMSO, adjusting the final concentration of DMSO to 1% in the well. Three days after drug treatment, cell viability was measured by adding PrestoBlue (Life Technologies Ltd.; cat. No. A13262) reagent directly to wells containing media/drug to reach a final concentration of 10%. PrestoBlue is a modified molecule of the common Alamar Blue probe used to determine viability based on the ability of a cell to metabolize a nonfluorescent compound (resazurin) to a florescent molecule (resorufin). Following a 1 hour incubation period, total well fluorescence was measured using the microplate reader M1000 pro (Tecan) with excitation 560-5 nm and emission 590-5 nm. […] The percentage of living cells was then computed by comparison with control wells. Kuhn, Jonas et al., Assay and Drug Development Technologies, March 2013, Label-Free Cytotoxicity Screening Assay by Digital Holographic Microscopy.

HUVECs [2] = assay: HUVEC Tube Formation Assay; assay type: cell-based; conditions: doses above 6.25 μM, 8 h, Matrigel
Protocol: The endothelial cell tube formation assay is an in vitro assay that is widely accepted to accurately reflect number of terminal stages of the angiogenic process such as attachment, migration and differentiation into tubular structures. In this model, endothelial cells are cultured on a monolayer of reconstituted basement membrane components (Matrigel) and form, in a few hours, capillary-like structure. Therefore, this system is a useful and powerful tool for rapidly screening anti-angiogenic agents by monitoring inhibition of endothelial cells morphogenesis on extracellular matrix.
HUVECs (5×10^3) were seeded on top of Matrigel in a 24-well plate. The cells were treated either with DMSO or different concentrations of the Rac1 inhibitor 0032253 (5, 6.25, 10, 12.5 μM) for 8 h in triplicate. The plates were scanned by LICOR Odyssey Imaging system.

[3] = molecular target: His-Rac1 / GST-PBD (PAK Binding Domain) (Homo sapiens, UniProt P63000); assay: Rac Activation AlphaScreen Assay (Rac1 AS); assay type: biochemical; conditions: 500 nM GTPγS, 37° C., 1 hour; 'positive' = signal generated was higher than the positive control
Protocol: AlphaScreen® assays were performed in 96-well microplates in a final reaction volume of 60 μl. Recombinant His-Rac1, recombinant GST-PBD (PAK Binding Domain), donor and acceptor beads (PerkinElmer), and inhibitors were incubated in exchange buffer (20 mM Tris pH 7.5, 50 mM NaCl, 1 mM MgCl2, 1 mM EDTA, 500 nM GTPγS (guanosine 5′-[γ-thio]triphosphate)) at 37° C. Readings were performed on a Tecan M1000 pro microplate reader after 1 hour.

WM1158 cells = assay: Western Blot Analysis of phosphorylated AKT, MEK1/2, ERK1/2; assay type: cell-based; conditions: increasing concentrations, two hours, vs DMSO control
Source text: Western blot analysis is used to identify specific proteins from a complex mixture of proteins extracted from cells. Equal amount of protein is run on the SDS-PAGE gel and after separating the protein mixture, it is transferred to a membrane. The transferred protein is then probed with a combination of antibodies: one antibody specific to the protein of interest (primary antibody) and another antibody specific to the host species of the primary antibody (secondary antibody). The secondary antibody is complexed with an enzyme, which when combined with an appropriate substrate, will produce a detectable signal.
WM1158 cells were treated with increasing concentrations of 0032253 for two hours. SDS-PAGE was conducted on cell lysates and Western Blot analysis was conducted on samples for total and phosphorylated AKT, MEK1/2, and ERK1/2.

HUVECs [4] = assay: Cell Migration Assay (Boyden chamber); assay type: cell-based; conditions: 5 uM
Protocol: An essential characteristic of malignant cells is their ability to migrate, invade host tissues and to produce metastases. In order to evaluate the capacity of one compound to affect the ability of tumoral cells to migrate, migration assays were performed using HUVEC cells.
HUVECs (2.5×10^4) were seeded onto uncoated filters in a 24-well transwell Boyden chamber ([…]; Costar) and allowed to migrate in the presence and absence of different doses of the Rac1 inhibitor 0032253 (5, 6.25, 10, 12.5, 20, 25 μM). The cells that migrated to the underside of the filter were stained with crystal violet and counted under the bright field microscopy.

HUVECs [5] = assay: Cellular Proliferation Assay; assay type: cell-based; conditions: 25 uM, cells counted day 0 through day 4
Protocol: 25,000 cells were seeded in 6-well plates. The next day, vehicle (DMSO) or 25 μM 0032253 was added to cells (Day 0). Cells were counted on days 0 through day 4 using a hemocytometer.

Rac1 protein = molecular target: T1, Rac1 protein (Homo sapiens, UniProt P63000); assay: Fluorescence Polarization Assay (Rac1 FP); assay type: binding; conditions: 125 nM his-tagged Rac1, 12.5 nM Bodipy-TR GTPγS, 30 minutes at 37° C.
T1 construct: purchased Cytoskeleton Inc. RC01
Protocol: Direct binding of Rac1 compound inhibitors to Rac1 protein was performed using fluorescence polarization (FP). Briefly, Rac1 inhibitors were initially dissolved in DMSO and then serial drug dilutions in exchange buffer (20 mM Tris pH 7.5, 50 mM NaCl, 1 mM MgCl, 1 mM EDTA) were prepared in a flat black 96-well half-area plate (Greiner). Recombinant his-tagged Rac1 protein (Cytoskeleton Inc. Cat. # RC01) was added to the inhibitors at a final concentration of 125 nM along with 12.5 nM Bodipy-TR GTPγS (Life Technologies Inc. Cat. # G35780) in exchange buffer and incubated for 30 minutes at 37° C. in exchange buffer. After 30 minutes of incubation. FP was measured on the M1000 Pro (Tecan) fluorescent plate reader with 590 nm±5 nm excitation and 625 nm±5 nm emission spectra settings.

Question: With `FC(F)(F)c1ccc2c(SCCCCCCn3cc(CN4CCOCC4)nn3)ccnc2c1` (racemic) [Compound 0032253, 4-({6-[4-(morpholin-4-ylmethyl)-1H-1,2,3-triazol-1-yl]hexyl}sulfanyl)-7-(trifluoromethyl)quinoline] as the compound, how does the IC50 [1] read?
Answer: Its IC50 is 4.38 µM.

Question: What about the HUVEC tube formation (HUVECs [2]) of the same compound?
Answer: The HUVEC tube formation was “significantly reduce the ability of HUVECs to form tube like structures”.

Question: And the “Rac1 AS IC50(uM)” value [3]?
Answer: Its value is “positive”.

Question: What about the “expression of phosphorylated AKT” value (WM1158 cells) of the same compound?
Answer: The value was “reduced as compared to DMSO control”.

Question: And the “expression of phosphorylated ERK1/2” value (WM1158 cells)?
Answer: The value was “reduced as compared to DMSO control”.

Question: And the “expression of phosphorylated MEK1/2” value (WM1158 cells)?
Answer: Its value is “reduced as compared to DMSO control”.

Question: What about the “HUVEC migration through a Boyden Chamber” value (HUVECs [4]) of the same compound?
Answer: The value was “impairs the ability of HUVECs to migrate through a Boyden Chamber”.

Question: What about the HUVEC proliferation (HUVECs [5]) of the same compound?
Answer: The HUVEC proliferation was “completely inhibits the ability of HUVECs to proliferate”.

Question: And the IC50 (Rac1 protein)?
Answer: Its IC50 is 3.42 µM.
